Tested on: citric acid-induced cough responses
Assay: Citric acid-induced cough in conscious guinea-pigs (aerosol pre-treatment)
Type: in vivo, guinea-pig
Details: aerosol 10.0 mg/ml immediately before exposure to citric acid (1M); compared with control (procaine) pre-treated guinea pigs; 15 minute observation period
Description: The following method is one of the general methods available to determine the antitussive activity of the compounds of the present invention.
Male albino Dunkin-Hartley strain guinea-pigs (weight 300-400 g) can be obtained from various commercial suppliers.
The method is a modification of that described by Adcock J. J., Schneider C. and Smith T. W., “Effects of Morphine and a Novel Opioid Pentapeptide BW443C, on Cough, Nociception and Ventilation in the Unanaesthetized Guinea-pig”, Br. J. Pharmacol., 93, 93-100 (1988). […]
Cylinder air is introduced into the exposure chamber at a flow rate of 1 liter/min maintained by a needle valve and monitored by a rotameter. […]
Cough responses are induced by exposure to an aerosol of citric acid (1M) for 10 minutes. Animals are continuously monitored by trained observer, and the number of coughs are counted during a 15 minute period from commencement of the citric acid aerosol administration. […]
The three types of response are differentiated primarily by sound and visual observation. […] Each cough is marked on the Grass polygraph paper trace, and from these record numbers, frequency and time of onset of coughs are determined. […]
Quantities of drugs are weighed out and dissolved in a vehicle. […] The sequence of pre-treatment administration is determined according to a 4×4 Latin Square design. […]

CC[N+](C)(CC)CCOC(=O)c1ccc(N)cc1.[I-] [N-methyl-procaine iodide, 2-[(4-Aminobenzoyl)oxy]-N,N-diethyl-N-methylethanaminium iodide]
inhibition of cough responses: > 50%
